According to PubChem BioAssay (NCI):
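These data come from cells grown in 96-well plates and exposed to compound for 48 hours at five concentrations. GI50: concentration for 50% inhibition of growth. At the TGI there is no net growth.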

What was measured:
Assay in all cases: NCI-60 cell line screen, 48 h
A549 NSCLC = system: A549 NSCLC
ACHN renal = system: ACHN renal
CCRF-CEM leukemia = system: CCRF-CEM leukemia
COLO 205 colon = system: COLO 205 colon
HT29 colon = system: HT29 colon
K-562 leukemia = system: K-562 leukemia
NCI-H226 lung = system: NCI-H226 lung
NCI-H522 lung = system: NCI-H522 lung
OVCAR-4 ovarian = system: OVCAR-4 ovarian
MCF7 breast = system: MCF7 breast

Structure (SMILES) | TGI (A549 NSCLC) [µM] | TGI (ACHN renal) [µM] | TGI (CCRF-CEM leukemia) [µM] | TGI (COLO 205 colon) [µM] | TGI (HT29 colon) [µM] | TGI (K-562 leukemia) [µM] | TGI (NCI-H226 lung) [µM] | TGI (NCI-H522 lung) [µM] | TGI (OVCAR-4 ovarian) [µM] | TGI (MCF7 breast) [µM] | GI50 (ACHN renal) [µM] | GI50 (CCRF-CEM leukemia) [µM] | GI50 (COLO 205 colon) [µM] | GI50 (MCF7 breast) [µM] | GI50 (NCI-H226 lung) [µM] | GI50 (NCI-H522 lung) [µM] | GI50 (OVCAR-4 ovarian) [µM] | GI50 (A549 NSCLC) [µM] | GI50 (HT29 colon) [µM] | GI50 (K-562 leukemia) [µM]
Cc1ccc(Nc2nc(C)c(C(/C=C/c3ccc(/C=C/C(=N/NC(=O)C[n+]4ccccc4)c4sc(Nc5ccc(C)cc5[N+](=O)[O-])nc4C)cc3)=N\NC(=O)C[n+]3ccccc3)s2)c([N+](=O)[O-])c1 | > 100 | > 100 | > 100 | > 100 | > 100 | > 100 | 84.5 | > 100 | > 100 | – | – | – | – | – | – | – | – | – | – | –
Cc1cc(Cl)ccc1NC(=O)CC/C(CC(=O)C(C)C)=N\NC(=O)C[n+]1ccccc1 | > 100 | > 100 | > 100 | > 100 | > 100 | > 100 | > 100 | > 100 | > 100 | – | – | – | – | – | – | – | – | – | – | –
C=C1c2[nH]c3c([N+](=O)[O-])c(OC)ccc3c2CCN1C(C)=O | > 100 | > 100 | > 100 | > 100 | > 100 | > 100 | > 100 | > 100 | > 100 | – | – | – | – | – | – | – | – | – | – | –
CN(C(=O)c1ccco1)C(=S)N1CCN(c2ccccc2)CC1 | > 100 | > 100 | > 100 | > 100 | > 100 | > 100 | > 100 | > 100 | > 100 | – | – | – | – | – | – | – | – | – | – | –
COC(=O)C1=CC2C(=O)OC1CC2C#N (stereo not drawn) | > 100 | > 100 | > 100 | > 100 | > 100 | > 100 | > 100 | > 100 | > 100 | – | – | – | – | – | – | – | – | – | – | –
[N-]=[N+]=NC(CI)c1cn([C@H]2C[C@H](O)[C@@H](CO)O2)c(=O)[nH]c1=O (stereo partly drawn) | > 100 | > 100 | > 100 | > 100 | > 100 | > 100 | > 100 | > 100 | – | – | – | – | – | – | – | – | – | – | – | –
CC(=O)C1C(=O)C(=O)N(c2ccccc2C(C)C)C1=O (stereo not drawn) | > 100 | > 100 | > 100 | > 100 | > 100 | > 100 | > 100 | > 100 | > 100 | – | – | – | – | – | – | – | – | – | – | –
Nc1ncnc2c1nnn2C1CCC(CP(=O)(O)O)C1 (stereo not drawn) | > 100 | > 100 | > 100 | > 100 | > 100 | > 100 | > 100 | – | > 100 | > 100 | – | – | – | – | – | – | – | – | – | –
O=C1CC(S(=O)(=O)O)C=C1Nc1cccc(Cl)c1 (stereo not drawn) | > 100 | > 100 | > 100 | > 100 | > 100 | > 100 | > 100 | > 100 | > 100 | – | – | – | – | – | – | – | – | – | – | –
Cc1ccc(CNc2c3ccccc3nc3cc(NC(=O)CCN4CCCC4)ccc23)cc1 | – | 1.74 | 2.12 | 1.62 | – | – | 2.46 | 1.95 | 2.02 | 1.77 | 0.541 | 0.392 | 0.408 | 0.453 | 1.02 | 0.509 | 0.569 | – | – | –
CN1c2ccccc2N(C)C23N(C)c4ccccc4N(C)C12N(C)c1ccccc1N3C (stereo not drawn) | > 100 | > 100 | > 100 | > 100 | > 100 | > 100 | > 100 | > 100 | – | – | – | – | – | – | – | – | – | – | – | –
COc1ccc2ccccc2c1C1OC(=O)c2ccccc21 (stereo not drawn) | > 100 | > 100 | > 100 | > 100 | > 100 | > 100 | > 100 | > 100 | > 100 | – | – | – | – | – | – | – | – | – | – | –
CCCOC(=O)N1CCN(/[N+]([O-])=N/Oc2ccc([N+](=O)[O-])cc2[N+](=O)[O-])CC1 | 22.4 | 3.79 | – | 6.21 | > 100 | > 100 | 4.3 | 15.7 | – | 2.23 | 1.84 | – | 2.59 | 0.446 | 1.46 | 3.16 | – | 3.85 | 2.05 | 0.505
COC(=O)C1=C(c2cc(OC)c(OC)c(OC)c2)OC(c2ccc(OC)c(OC)c2)C1 (stereo not drawn) | > 100 | > 100 | > 100 | 42.6 | > 100 | > 100 | > 100 | – | > 100 | – | – | – | – | – | – | – | – | – | – | –
O=CC1CCCc2ccccc21 (stereo not drawn) | > 100 | > 100 | > 72 | > 61.4 | > 100 | > 100 | > 100 | > 100 | > 100 | – | – | – | – | – | – | – | – | – | – | –
COc1cc(C2C(Cl)C(=O)N2NC(=O)c2ccc(N)cc2)ccc1O (stereo not drawn) | > 100 | > 100 | 47.3 | 36.9 | 45.8 | 76.2 | > 100 | 35 | > 100 | – | – | – | – | – | – | – | – | – | – | –
COc1ccc(C(C#N)Cc2cc(OC)c(OC)c(OC)c2)cc1 (stereo not drawn) | > 100 | > 100 | > 100 | 49.3 | > 100 | > 100 | > 100 | 71.9 | > 100 | – | – | – | – | – | – | – | – | – | – | –
NC(=O)c1c(NC(=O)c2ccc3c(c2)OCO3)sc2c1CCC(=O)C2 | > 100 | 5.11 | 2.32 | 7.42 | – | > 100 | – | 2.29 | 1.79 | > 100 | 1.51 | 0.333 | 2.49 | 1.96 | – | 0.355 | 0.494 | 3.44 | – | 0.356
Cc1ccccc1NC(=O)C(=O)CC(=O)c1c(C)n([O-])c2ccccc2[n+]1=O | > 100 | > 100 | – | > 100 | > 100 | > 100 | > 100 | – | > 100 | – | – | – | – | – | – | – | – | – | – | –
O=c1c2ccccc2nc(-c2ccccc2)n1NC1OC(CO)C(O)C(O)C1O (stereo not drawn) | > 100 | > 100 | > 100 | > 100 | > 100 | > 100 | > 100 | > 100 | > 100 | – | – | – | – | – | – | – | – | – | – | –
Cc1ccc(C)c(NC(=O)CC/C(=N\NC(=O)c2c(O)ccc3ccccc23)C(C)C(=O)c2ccc(O)cc2)c1 (stereo not drawn) | > 100 | 84.6 | 71 | 51.3 | > 100 | > 100 | 98.8 | 42.6 | > 100 | – | – | – | – | – | – | – | – | – | – | –
